Experimental data: paper PMC6634946 (The FEBS journal, 2019)

Key:
Format in all cases: cell-based, human
[1] = system: U-2 OS cells; assay: Western blot analysis of p53, p21 expression; conditions: 24 hours, (R)-5a effect at 5 and 10 μM
[2] = system: U-2 OS cells; assay: Caspase 3/7 activity assay; conditions: 24 or 48 hours
[3] = system: SJSA-1 cells; assay: Caspase 3/7 activity assay; conditions: SJSA-1, 24 or 48 hours
[4] = system: U-2 OS cells; assay: Cell cycle analysis; conditions: 24 hours, 5 μM, control 55%
[5] = system: U-2 OS cells; assay: Real-time PCR of p53-target genes; conditions: 6 hours, 10 μM (R)-5a, 5 μM RG7388, normalized to GAPDH

SMILES | expression of p53 and p21 protein [1] | induction of apoptosis (caspase 3/7 activity) [2] | induction of apoptosis (caspase 3/7 activity) [3] | percentage of S-phase cells [4] [%] | MDM2 and CDKN1A transcripts [5]
COc1ccc(C2=N[C@@H](c3ccc(Cl)cc3)[C@@H](c3ccc(Cl)cc3)N2C(=O)N2CCNC(=O)C2)c(OC(C)C)c1 [Nutlin-3] | increased the expression of p21 and p53 | – | – | – | –
COc1cc(C(=O)O)ccc1NC(=O)[C@@H]1N[C@@H](CC(C)(C)C)[C@](C#N)(c2ccc(Cl)cc2F)[C@H]1c1cccc(Cl)c1F [RG7388, Idasanutlin] | increased the expression of p21 and p53 | not in U-2 OS cells | induced apoptosis only in SJSA-1 cells | 0.5 | significant increase of MDM2 and CDKN1A transcripts
CN[C@@H]1C[C@H]2O[C@@](C)([C@@H]1OC)n1c3ccccc3c3c4c(c5c6ccccc6n2c5c31)C(=O)NC4 [Staurosporine] | – | induced apoptosis in both cell lines | induced apoptosis in both cell lines | – | –
